Results on 20 molecules are retold here after US10889573B2, “Anthelmintic quinoline-3-carboxamide derivatives” (Bayer Animal Health GMBH, priority 2016, dated 2021).

The test system of test [1] is Dirofilaria immitis microfilariae. Put plainly: In vitro assay 3: Dirofilaria immitis microfilariae (DIROIM L1), motility. The settings on record: 72 h, read-out: EC50 (reduction of motility), 72 h incubation.
Test [2] concerns Nippostrongylus brasiliensis. Put plainly: In vitro assay 2: Nippostrongylus brasiliensis (NIPOBR), acetylcholine esterase readout. The settings on record: read-out: activity (reduction of AChE compared to negative control); for inhibition at 1 µg/mL: 1 μg/ml; for inhibition at 10 µg/mL: 10 μg/ml. The protocol: In Vitro Assay 2: Nippostrongylus brasiliensis (NIPOBR)
Adult Nippostrongylus brasiliensis were washed with saline buffer containing 100 U/ml penicillin, 0.1 mg/ml streptomycin and 2.5 μg/ml amphotericin B. Test compounds were dissolved in DMSO and worms were incubated in medium in a final concentration of 10 μg/ml (10 ppm) respectively 1 μg/ml (1 ppm). An aliquot of the medium was used to determine the acetylcholine esterase activity in comparison to a negative control. The principle of measuring acetylcholine esterase as readout for anthelmintic activity was described in Rapson et al (1986) and Rapson et al (1987).

The test system of test [3] is Cooperia curticei. The settings on record: Cooperia curticei, 120 h, read-out: activity (larval mortality).
Procedure: In Vitro Assay 6: Cooperia curticei (COOPCU L3)
Solvent: dimethyl sulfoxide
Approximately 40 nematode larvae (Cooperia curticei) are transferred into a test tube containing the compound solution.
After 5 days percentage of larval mortality is recorded. 100% efficacy means all larvae are killed; 0% efficacy means no larvae are killed.
The target of test [4] is C. elegans Slo-1a (Caenorhabditis elegans, UniProt Q95V25). The settings on record: pE50 (negative decadic logarithm of EC50), CHO cells expressing C. elegans Slo-1a, voltage sensitive dye.
In test [5] the test system is Haemonchus contortus. The settings on record: 120 h, read-out: activity (larval mortality).
Procedure: In Vitro Assay 7: Haemonchus contortus (HAEMCO L3)
Solvent: dimethyl sulfoxide
Approximately 40 larvae of the red stomach worm (Haemonchus contortus) are transferred into a test tube containing compound solution.
After 5 days the percentage of larval mortality is recorded. 100% efficacy means all larvae are killed, 0% efficacy means no larvae are killed.
Test [6] deals with Dirofilaria immitis third-stage larvae. Kind of test: In vitro assay 4: Dirofilaria immitis (DIROIM L4), motility. The settings on record: 72 h, read-out: EC50 (reduction of motility).

By EC50 is commonly meant the concentration needed to bring the measured effect to its halfway point. What is called mortality is the percentage killed.

Chain of C. elegans Slo-1a (Q95V25 whole entry): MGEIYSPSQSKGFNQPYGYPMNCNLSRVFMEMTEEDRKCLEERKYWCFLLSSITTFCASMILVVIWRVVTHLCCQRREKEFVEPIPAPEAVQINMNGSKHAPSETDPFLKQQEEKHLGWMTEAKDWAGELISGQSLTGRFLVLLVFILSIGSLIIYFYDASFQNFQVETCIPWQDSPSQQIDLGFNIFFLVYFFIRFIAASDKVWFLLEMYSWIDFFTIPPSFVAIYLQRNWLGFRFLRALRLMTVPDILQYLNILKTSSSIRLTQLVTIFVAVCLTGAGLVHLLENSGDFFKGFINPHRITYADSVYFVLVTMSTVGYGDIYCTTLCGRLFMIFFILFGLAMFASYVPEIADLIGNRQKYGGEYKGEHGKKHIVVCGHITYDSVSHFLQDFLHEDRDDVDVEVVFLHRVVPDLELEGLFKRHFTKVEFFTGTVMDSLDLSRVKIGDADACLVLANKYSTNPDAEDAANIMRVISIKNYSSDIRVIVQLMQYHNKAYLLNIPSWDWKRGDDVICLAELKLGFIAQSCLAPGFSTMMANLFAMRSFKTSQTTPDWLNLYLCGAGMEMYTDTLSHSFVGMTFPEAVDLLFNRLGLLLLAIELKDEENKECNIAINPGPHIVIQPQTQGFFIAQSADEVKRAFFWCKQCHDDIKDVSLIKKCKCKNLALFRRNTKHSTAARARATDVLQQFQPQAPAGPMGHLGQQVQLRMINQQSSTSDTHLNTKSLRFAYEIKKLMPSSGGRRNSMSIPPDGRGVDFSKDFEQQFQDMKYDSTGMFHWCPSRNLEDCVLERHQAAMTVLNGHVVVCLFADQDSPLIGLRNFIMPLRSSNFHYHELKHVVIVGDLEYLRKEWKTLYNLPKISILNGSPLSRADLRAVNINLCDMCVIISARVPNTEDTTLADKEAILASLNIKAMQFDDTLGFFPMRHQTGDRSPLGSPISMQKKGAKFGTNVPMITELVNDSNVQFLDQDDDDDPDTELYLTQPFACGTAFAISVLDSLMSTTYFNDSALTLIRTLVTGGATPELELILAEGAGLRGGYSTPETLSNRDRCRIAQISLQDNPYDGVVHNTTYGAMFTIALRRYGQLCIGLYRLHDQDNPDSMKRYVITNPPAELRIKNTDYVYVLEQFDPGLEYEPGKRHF

As for `O=C(N[C@H]1CCOc2ccccc21)c1cnc2c(-c3cccc(Cl)c3Cl)cccc2c1N1CCC(O)C1` (mixture of isomers) [Example 194], the EC50 in test [1] was under 0.1 µg/mL; in test [4] it was under 3.16 nM; in test [6] it was under 0.1 µg/mL. Moreover, in test [2], the inhibition at 1 µg/mL is over 80%. For the same molecule, the mortality at 4 ppm is 100% in test [3] and 90% in test [5]. Besides, the mortality at 20 ppm in test [3] and in test [5] was 100% throughout.
On to `O=C(N[C@H]1CCOc2ccccc21)c1cnc2c(-c3cccc(F)c3Cl)cccc2c1N1CCC(O)C1` (mixture of isomers) [Example 258], for which the EC50 in test [1] is under 0.1 µg/mL; in test [4], 3.16 to 31.6 nM; in test [6] it was under 0.1 µg/mL. Moreover, in test [3], the mortality at 4 ppm is 80%. Moreover, the mortality at 20 ppm in test [5] was found to be 90%.
As to `O=C(N[C@H]1CCOc2ccccc21)c1cnc2c(-c3cccc(Cl)c3)cccc2c1N1CCC(O)C1` (mixture of isomers) [Example 260], the EC50 was under 0.1 µg/mL in test [1], under 3.16 nM in test [4] and under 0.1 µg/mL in test [6]. In addition, the inhibition at 1 µg/mL in test [2] is over 80%. For the same molecule, the mortality at 4 ppm in test [3] and in test [5] was 80% in each case. In addition, the mortality at 20 ppm in test [3] and in test [5] was 90% in each case.
In the case of `O=C(N[C@H]1CCOc2ccccc21)c1cnc2c(-c3cc(Cl)cc(C(F)(F)F)c3)cccc2c1N1CCC(O)C1` (mixture of isomers) [Example 271], the EC50 in test [1] was under 0.1 µg/mL; in test [4], under 3.16 nM; in test [6], under 0.1 µg/mL. Moreover, in test [2], the inhibition at 1 µg/mL is over 80%. Also, the mortality at 4 ppm in test [3] and in test [5] was 90% throughout. Also, the mortality at 20 ppm in test [3] and in test [5] was 90% each time.
Take `Cc1cc(Cl)cc(-c2cccc3c(N4CCC(O)C4)c(C(=O)N[C@H]4CCOc5ccccc54)cnc23)c1F` (mixture of isomers) [Example 272]: the half-maximal effective concentration (EC50) is under 0.1 µg/mL in test [1], under 3.16 nM in test [4] and under 0.1 µg/mL in test [6]. For the same molecule, the inhibition at 1 µg/mL in test [2] was over 80%. The results for the mortality at 20 ppm in test [3] and in test [5] were 80% and 90%, respectively. Further, the mortality at 4 ppm in test [5] came out at 90%.
Take `CN(C)c1c(C(=O)N[C@H]2CCOc3ccccc32)cnc2c(-c3cc(F)c(F)c(F)c3)cccc12` [Example 47]: the values for the EC50 in test [1], in test [4] and in test [6] were under 0.1 µg/mL, under 3.16 nM and under 0.1 µg/mL, respectively. Also, the inhibition at 1 µg/mL in test [2] is over 80%. In test [2], the inhibition at 10 µg/mL was over 80%. For the same molecule, the mortality at 4 ppm came out at 80% in test [3] and 90% in test [5]. Besides, the figures for the mortality at 20 ppm in test [3] and in test [5] were 80% and 100%, respectively.
`CN(C)c1c(C(=O)N[C@H]2CCOc3ccccc32)cnc2c(-c3cccc(C(F)(F)F)c3F)cccc12` [Example 50]: the EC50 in test [1] is under 0.1 µg/mL; in test [4], under 3.16 nM; in test [6] it was under 0.1 µg/mL. In addition, the inhibition at 1 µg/mL in test [2] was over 80%. The inhibition at 10 µg/mL in test [2] is over 80%. Also, the results for the mortality at 4 ppm in test [3] and in test [5] were 80% and 90%, respectively. Besides, the mortality at 20 ppm was 90% in test [3] and 100% in test [5].
With `O=C(N[C@H]1CCOc2ccccc21)c1cnc2c(-c3cc(Cl)ccc3F)c(F)ccc2c1N1CCOCC1` [Example 170], the EC50 is under 0.1 µg/mL in test [1], under 3.16 nM in test [4] and under 0.1 µg/mL in test [6]. In test [2], the inhibition at 1 µg/mL is over 80%. Besides, the mortality at 4 ppm in test [3] and in test [5] was 100% each time. For the same molecule, the mortality at 20 ppm in test [3] and in test [5] was 100% in each case.
As to `CN(C)c1c(C(=O)N[C@H]2CCOc3ccccc32)cnc2c(-c3ccc(F)cc3Cl)c(F)ccc12` [Example 172], the values for the EC50 in test [1], in test [4] and in test [6] were under 0.1 µg/mL, under 3.16 nM and under 0.1 µg/mL, respectively. Further, in test [2], the inhibition at 1 µg/mL is over 80%. Also, the mortality at 4 ppm was 100% in test [3] and 80% in test [5]. Moreover, the mortality at 20 ppm in test [3] and in test [5] was 100% in each case.
For the molecule `O=C(N[C@H]1CCOc2ccccc21)c1cnc2c(-c3cccc4c3OCC4)cccc2c1N1CCOCC1` [Example 204], the EC50 in test [1] was under 0.1 µg/mL; in test [4] it was 3.16 to 31.6 nM; in test [6], under 0.1 µg/mL. Besides, the inhibition at 1 µg/mL in test [2] is over 80%. The mortality at 20 ppm was determined as 100% in test [3] and 90% in test [5].
As to `O=C(N[C@H]1CCOc2ccccc21)c1cnc2c(-c3cc(Cl)ccc3F)cccc2c1N1CCOCC1` [Example 221], the half-maximal effective concentration (EC50) in test [1] was under 0.1 µg/mL; in test [4], under 3.16 nM; in test [6], under 0.1 µg/mL. Moreover, in test [2], the inhibition at 1 µg/mL was over 80%. Besides, the mortality at 4 ppm in test [3] and in test [5] was 90% each time. The mortality at 20 ppm in test [3] and in test [5] was 100% in each case.
Regarding `O=C(N[C@H]1CCOc2ccccc21)c1cnc2c(-c3cccc(Cl)c3F)cccc2c1N1CCOCC1` [Example 226], the EC50 in test [1] is under 0.1 µg/mL; in test [4], under 3.16 nM; in test [6], under 0.1 µg/mL. The inhibition at 1 µg/mL in test [2] is over 80%. The mortality at 4 ppm in test [3] is 100%; in test [5], 90%. In addition, the mortality at 20 ppm in test [3] and in test [5] was 100% throughout.
As for `O=C(N[C@H]1CCOc2ccccc21)c1cnc2c(-c3cc(Cl)cc(C(F)(F)F)c3)cccc2c1N1CCOCC1` [Example 235], the EC50 is under 0.1 µg/mL in test [1], under 3.16 nM in test [4] and under 0.1 µg/mL in test [6]. Also, the inhibition at 1 µg/mL in test [2] was over 80%. Further, the mortality at 4 ppm in test [3] and in test [5] was 90% each time. Also, the mortality at 20 ppm in test [3] and in test [5] was 100% in each case.
As to `COC(=O)[C@H]1CCN(c2c(C(=O)N[C@H]3CCOc4ccccc43)cnc3c(-c4cc(Cl)cc(Cl)c4)cccc23)C1` [Example 281], the EC50 in test [1] is under 0.1 µg/mL; in test [4] it was under 3.16 nM; in test [6], under 0.1 µg/mL. Moreover, the inhibition at 1 µg/mL in test [2] is over 80%. Besides, the mortality at 4 ppm in test [3] and in test [5] was 80% each time. Further, the mortality at 20 ppm came out at 90% in test [3] and 80% in test [5].
Take `CN(C)c1c(C(=O)N[C@H]2CCOc3ccccc32)cnc2c(-c3cccc(Cl)c3Cl)c(F)ccc12` [Example 330]: the EC50 is under 0.1 µg/mL in test [1], under 3.16 nM in test [4] and under 0.1 µg/mL in test [6]. Also, the inhibition at 1 µg/mL in test [2] is over 80%. Besides, the results for the mortality at 4 ppm in test [3] and in test [5] were 90% and 100%, respectively. Moreover, the results for the mortality at 20 ppm in test [3] and in test [5] were 90% and 100%, respectively.
As for `COCCOc1c(C(=O)N[C@H]2CCOc3ccccc32)cnc2c(-c3cc(Cl)cc(Cl)c3)cccc12` [Example 338], the results for the EC50 in test [1], in test [4] and in test [6] were under 0.1 µg/mL, under 3.16 nM and under 0.1 µg/mL, respectively. Moreover, the inhibition at 1 µg/mL in test [2] was over 80%. In addition, the inhibition at 10 µg/mL in test [2] was over 80%. In addition, the mortality at 4 ppm in test [3] is 90%. For the same molecule, the mortality at 20 ppm in test [3] was 90%.
Turning to `O=C(N[C@H]1CCOc2ccccc21)c1cnc2c(-c3cc(Cl)cc(Cl)c3)cccc2c1N1CC(F)C1` [Example 392], the EC50 in test [1] was under 0.1 µg/mL; in test [4], 3.16 to 31.6 nM; in test [6] it was under 0.1 µg/mL. Also, the inhibition at 1 µg/mL in test [2] was over 80%. Further, the mortality at 4 ppm in test [5] was determined as 80%. In test [5], the mortality at 20 ppm turned out to be 80%.
In the case of `Cc1ccc(F)c(-c2cccc3c(N(C)C)c(C(=O)N[C@H]4CCOc5ccccc54)cnc23)c1` [Example 437], the figures for the half-maximal effective concentration (EC50) in test [1], in test [4] and in test [6] were under 0.1 µg/mL, under 3.16 nM and under 0.1 µg/mL, respectively. Moreover, the inhibition at 1 µg/mL in test [2] is over 80%. For the same molecule, the mortality at 4 ppm in test [3] is 80%.
As to `O=C(N[C@H]1CCOc2ccccc21)c1cnc2c(-c3cc(Cl)cc(Cl)c3)cccc2c1C1CCOCC1` [Example 539, 8-(3,5-dichlorophenyl)-N-[(4S)-3,4-dihydro-2H-chromen-4-yl]-4-(tetrahydro-2H-pyran-4-yl)quinoline-3-carboxamide], the EC50 in test [1] was under 0.1 µg/mL; in test [4], under 3.16 nM; in test [6] it was under 0.1 µg/mL. The mortality at 4 ppm in test [3] and in test [5] was 100% in each case. For the same molecule, the mortality at 20 ppm in test [3] and in test [5] was 100% throughout.
For the molecule `Cc1cc(-c2cccc3c(N4CCOCC4)c(C(=O)N[C@H]4CCOc5ccccc54)cnc23)cc(C(C)(C)C)c1` [Example 587], the EC50 in test [1] was under 0.1 µg/mL; in test [4], under 3.16 nM; in test [6], under 0.1 µg/mL. Moreover, the inhibition at 1 µg/mL in test [2] was over 80%. The mortality at 20 ppm in test [3] turned out to be 80%.
